Drawing on PubChem BioAssay (NCI), this text covers GI50 and TGI for 8 compounds.

A word on the GI50: it is the concentration giving 50% growth inhibition. As a reminder, the TGI is the concentration at which net growth stops.

Among the test systems are HOP-92 NSCLC; KM12 colon; MALME-3M melanoma; MDA-MB-231 breast; NCI-H226 lung; OVCAR-3 ovarian; SN12C renal; T-47D breast; U251 CNS; UO-31 renal.
Common to all, as to experiment: DTP human tumour cell line panel, 48 h

“And” between values parts separate entries of the source, which are not always exact repeats. Equal values may be shown once.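 Five concentrations, 48 hours, 96-well plates. Abbreviation: GI50, concentration required for 50% inhibition of growth. TGI: total growth inhibition.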

As for `O=C1NC(=NCc2cccs2)O/C1=C\c1ccc2ncccc2c1`, the GI50 with HOP-92 NSCLC was 1.51 µM; in the experiment with KM12 colon, 7.45 µM; with MALME-3M melanoma, 4.85 µM; with MDA-MB-231 breast it was 8.23 µM; in the experiment with NCI-H226 lung, 5.82 µM; with OVCAR-3 ovarian, 4.46 µM. Besides, the GI50 with SN12C renal was 5.86 µM; in the experiment with T-47D breast it was 2.98 µM; in the experiment with U251 CNS it was 5.07 µM; with UO-31 renal, 4.99 µM. Besides, the TGI is 9.66 µM with HOP-92 NSCLC; 24.5 µM in the experiment with KM12 colon; 15.3 µM in the experiment with MALME-3M melanoma; over 25 µM in the experiment with MDA-MB-231 breast; over 19.8 µM with NCI-H226 lung; 12.6 µM with OVCAR-3 ovarian. In addition, the TGI is over 25 µM in the experiment on SN12C renal, 12.6 µM in the experiment on T-47D breast, over 18.8 µM in the experiment with U251 CNS and 14.1 µM with UO-31 renal.

Regarding `COc1cc2c(cc1C)NC(=O)/C2=C\c1ccc(Oc2ccccc2)cc1`, the GI50 in the experiment on HOP-92 NSCLC was 2.03 µM; with KM12 colon, 13.6 µM; with MALME-3M melanoma it was 20.1 µM; in the experiment on MDA-MB-231 breast, 18.2 µM; in the experiment on NCI-H226 lung it was 16.7 µM; with OVCAR-3 ovarian, 17.2 µM. Further, the GI50 in the experiment on SN12C renal is 14.4 µM; in the experiment on T-47D breast, 15.1 µM; with U251 CNS it was 12.8 µM; with UO-31 renal it was 14.8 µM. Also, the TGI is 9.19 µM in the experiment with HOP-92 NSCLC; 30.4 µM in the experiment with KM12 colon; 41.1 µM in the experiment with MALME-3M melanoma; 37.5 µM in the experiment with MDA-MB-231 breast; 32.6 µM with NCI-H226 lung; 34.3 µM in the experiment on OVCAR-3 ovarian. Further, the TGI in the experiment with SN12C renal was 27.5 µM; in the experiment with T-47D breast, 48.4 µM; in the experiment with U251 CNS, 25.4 µM; in the experiment with UO-31 renal, 30.9 µM.

Take `COc1ccccc1CNCCCN1C(=O)c2ccc3c4c(ccc(c24)C1=O)C(=O)N(CCCNCc1ccccc1OC)C3=O`: the GI50 was 0.243 µM in the experiment on HOP-92 NSCLC; 0.116 µM in the experiment on KM12 colon; 0.155 µM in the experiment with MALME-3M melanoma; 0.227 µM in the experiment on MDA-MB-231 breast; 0.362 µM in the experiment with NCI-H226 lung; 0.085 µM with OVCAR-3 ovarian. For the same compound, the GI50 in the experiment with SN12C renal was 0.151 µM; in the experiment on T-47D breast, 0.188 µM; with U251 CNS, 0.164 µM; in the experiment on UO-31 renal it was 0.196 µM. The TGI is 0.847 µM in the experiment on HOP-92 NSCLC; 0.272 µM in the experiment on KM12 colon; 0.32 µM with MALME-3M melanoma; 0.867 µM in the experiment on MDA-MB-231 breast; 1.32 µM with NCI-H226 lung; 0.218 µM in the experiment with OVCAR-3 ovarian. Further, the TGI with SN12C renal amounted to 0.305 µM; with T-47D breast, 0.42 µM; in the experiment on U251 CNS it was 0.447 µM; in the experiment on UO-31 renal, 0.458 µM.

Regarding `N#C[Se]CCN1C(=O)c2ccccc2C1=O`, the GI50 with HOP-92 NSCLC was 1.37 µM; with KM12 colon, 3.14 µM; with MALME-3M melanoma, 1.82 µM; in the experiment on MDA-MB-231 breast, 2.74 µM; in the experiment with NCI-H226 lung it was 1.6 µM; in the experiment with OVCAR-3 ovarian, 2.73 µM. Further, the GI50 is 2.69 µM in the experiment with SN12C renal, 3.45 µM in the experiment with T-47D breast, 2.63 µM in the experiment on U251 CNS and 2.09 µM with UO-31 renal. Also, the TGI in the experiment on HOP-92 NSCLC was 3.12 µM; in the experiment on KM12 colon, 45.3 µM; in the experiment on MALME-3M melanoma it was 13.4 µM; in the experiment with MDA-MB-231 breast, 9.65 µM; with NCI-H226 lung, 3.82 µM; in the experiment on OVCAR-3 ovarian, 9.39 µM. The TGI in the experiment with SN12C renal is 10.9 µM; in the experiment on T-47D breast, 20.2 µM; with U251 CNS it was 8.71 µM; in the experiment with UO-31 renal it was 7.92 µM.

Turning to `Cn1cc(-c2ccc3c(c2)ncn3-c2cc(NS(=O)(=O)C3CC3)cc(-c3ccc(F)cc3F)c2)cn1`, the GI50 in the experiment on HOP-92 NSCLC is 2.83 µM; with KM12 colon it was 4.96 µM; with MALME-3M melanoma, 22.7 µM; with MDA-MB-231 breast, 5.61 µM; in the experiment with NCI-H226 lung, 27 µM; in the experiment with OVCAR-3 ovarian, 14.5 µM. Further, the GI50 in the experiment on SN12C renal is 2.99 µM; in the experiment on T-47D breast it was 7.39 µM; in the experiment with U251 CNS, 3.77 µM; with UO-31 renal, 0.635 µM. Further, the TGI in the experiment with HOP-92 NSCLC is 62.4 µM; with KM12 colon, over 100 µM; with MALME-3M melanoma, 63.8 µM; in the experiment on MDA-MB-231 breast it was over 100 µM; in the experiment on NCI-H226 lung it was 94.4 µM; with OVCAR-3 ovarian it was 62.3 µM. In addition, the TGI is over 100 µM in the experiment with SN12C renal, 62.8 µM in the experiment on T-47D breast, over 100 µM in the experiment on U251 CNS and 36.7 µM with UO-31 renal.

As for `O=C(CC1(O)C(=O)Nc2c(Cl)cc(Cl)cc21)c1cccc([N+](=O)[O-])c1` (centres undefined), the TGI in the experiment on HOP-92 NSCLC was 80.9 µM; in the experiment on KM12 colon, over 100 µM; in the experiment with MALME-3M melanoma, 35.9 µM; with MDA-MB-231 breast, 64.7 µM; in the experiment with NCI-H226 lung, over 77.5 µM; with OVCAR-3 ovarian it was 58.5 µM. Further, the TGI in the experiment on SN12C renal is 58.1 µM; with T-47D breast it was over 100 µM; with U251 CNS it was over 70.8 µM; in the experiment with UO-31 renal it was 60.1 µM.

On to `CN1CCN(C(=O)/C=C/c2ccc([N+](=O)[O-])o2)CC1`, for which the GI50 in the experiment with HOP-92 NSCLC is 11.4 µM; in the experiment with KM12 colon it was 24 µM; in the experiment on MALME-3M melanoma, 3.76 µM; in the experiment with MDA-MB-231 breast, 14.3 µM; in the experiment with NCI-H226 lung, 22.4 µM; in the experiment on OVCAR-3 ovarian, 12.9 µM. Further, the GI50 is 13.8 µM in the experiment on SN12C renal, 18.1 µM in the experiment on T-47D breast, 17.1 µM in the experiment with U251 CNS and 13.4 µM in the experiment on UO-31 renal. In addition, the TGI with HOP-92 NSCLC was 26.1 µM; in the experiment with KM12 colon, over 100 µM; in the experiment with MALME-3M melanoma, 14.3 µM; in the experiment with MDA-MB-231 breast, 34.7 µM; in the experiment on NCI-H226 lung it was 60 µM; with OVCAR-3 ovarian, 26.2 µM. In addition, the TGI was 27.9 µM with SN12C renal, 45.4 µM in the experiment with T-47D breast, 55.1 µM with U251 CNS and 30.1 µM in the experiment on UO-31 renal.

Take `CNS(=O)(=O)Nc1nccc(Cc2c(C)c3ccc(Oc4ncccn4)cc3oc2=O)c1F`: the GI50 in the experiment on HOP-92 NSCLC was < 0.0152 µM and 0.0613 µM; in the experiment on KM12 colon it was 0.467 µM and 0.367 µM; in the experiment with MALME-3M melanoma, < 0.01 µM and 0.00211 µM; in the experiment with MDA-MB-231 breast, 0.549 µM and 0.313 µM; in the experiment with NCI-H226 lung, 6.82 µM and > 10 µM; with OVCAR-3 ovarian, 24.5 µM and > 10 µM. The GI50 in the experiment with SN12C renal was 13.1 µM and > 8.08 µM; in the experiment on T-47D breast, 16.1 µM and > 10 µM; with U251 CNS it was 17.4 µM and > 10 µM. For the same compound, the TGI in the experiment on HOP-92 NSCLC was 0.406 µM and 1.93 µM; in the experiment on KM12 colon, over 100 µM; in the experiment on MALME-3M melanoma, 0.0401 µM and 0.0217 µM; in the experiment on MDA-MB-231 breast it was over 100 µM; in the experiment with NCI-H226 lung it was over 100 µM; in the experiment on OVCAR-3 ovarian it was over 100 µM. In addition, the TGI in the experiment with SN12C renal, in the experiment with T-47D breast, with U251 CNS and with UO-31 renal was over 100 µM each time.
